T1: αβγENaC (Rattus norvegicus, UniProt P37089+P37090+P37091)
T1 construct: expressed in transfected cells; host or cells: Xenopus laevis oocytes (cRNA injection)
T1 sequence (P37089 1-698): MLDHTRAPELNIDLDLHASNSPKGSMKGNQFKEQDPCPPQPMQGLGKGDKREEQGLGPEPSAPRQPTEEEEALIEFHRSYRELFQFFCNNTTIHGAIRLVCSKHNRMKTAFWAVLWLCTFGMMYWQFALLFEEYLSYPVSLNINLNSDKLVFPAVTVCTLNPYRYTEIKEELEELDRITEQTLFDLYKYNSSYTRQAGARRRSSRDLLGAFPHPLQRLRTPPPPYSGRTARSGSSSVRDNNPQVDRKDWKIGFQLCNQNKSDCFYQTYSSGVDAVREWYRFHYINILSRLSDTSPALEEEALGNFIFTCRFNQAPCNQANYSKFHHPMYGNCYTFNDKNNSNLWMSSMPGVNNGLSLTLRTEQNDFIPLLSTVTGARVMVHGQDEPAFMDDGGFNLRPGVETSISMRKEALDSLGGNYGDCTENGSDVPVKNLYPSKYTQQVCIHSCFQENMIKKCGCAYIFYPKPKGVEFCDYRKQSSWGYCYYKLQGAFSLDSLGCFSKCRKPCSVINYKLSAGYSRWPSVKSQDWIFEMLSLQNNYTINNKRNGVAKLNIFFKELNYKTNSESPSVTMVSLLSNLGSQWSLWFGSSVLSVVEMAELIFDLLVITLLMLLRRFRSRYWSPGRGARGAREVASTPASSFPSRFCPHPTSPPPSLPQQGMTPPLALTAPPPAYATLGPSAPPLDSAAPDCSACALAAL
T1 sequence (P37090 1-638): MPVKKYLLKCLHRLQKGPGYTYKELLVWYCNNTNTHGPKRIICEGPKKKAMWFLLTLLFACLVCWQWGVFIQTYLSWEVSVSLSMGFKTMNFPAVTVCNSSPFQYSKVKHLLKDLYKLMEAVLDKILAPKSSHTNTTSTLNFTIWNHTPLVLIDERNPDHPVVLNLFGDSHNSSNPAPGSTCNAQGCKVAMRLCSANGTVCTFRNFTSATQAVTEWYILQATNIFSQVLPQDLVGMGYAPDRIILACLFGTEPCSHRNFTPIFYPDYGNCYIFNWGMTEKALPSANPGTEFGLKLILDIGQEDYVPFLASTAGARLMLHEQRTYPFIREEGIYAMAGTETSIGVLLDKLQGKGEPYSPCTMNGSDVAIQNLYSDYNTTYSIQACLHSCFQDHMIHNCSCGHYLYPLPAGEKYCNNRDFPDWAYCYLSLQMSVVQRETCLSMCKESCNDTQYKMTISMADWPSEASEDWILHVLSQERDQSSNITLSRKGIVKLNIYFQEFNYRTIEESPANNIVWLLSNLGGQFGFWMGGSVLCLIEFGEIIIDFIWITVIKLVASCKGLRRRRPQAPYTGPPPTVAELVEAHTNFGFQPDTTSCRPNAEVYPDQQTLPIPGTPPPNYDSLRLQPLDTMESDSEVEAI
T1 sequence (P37091 1-650): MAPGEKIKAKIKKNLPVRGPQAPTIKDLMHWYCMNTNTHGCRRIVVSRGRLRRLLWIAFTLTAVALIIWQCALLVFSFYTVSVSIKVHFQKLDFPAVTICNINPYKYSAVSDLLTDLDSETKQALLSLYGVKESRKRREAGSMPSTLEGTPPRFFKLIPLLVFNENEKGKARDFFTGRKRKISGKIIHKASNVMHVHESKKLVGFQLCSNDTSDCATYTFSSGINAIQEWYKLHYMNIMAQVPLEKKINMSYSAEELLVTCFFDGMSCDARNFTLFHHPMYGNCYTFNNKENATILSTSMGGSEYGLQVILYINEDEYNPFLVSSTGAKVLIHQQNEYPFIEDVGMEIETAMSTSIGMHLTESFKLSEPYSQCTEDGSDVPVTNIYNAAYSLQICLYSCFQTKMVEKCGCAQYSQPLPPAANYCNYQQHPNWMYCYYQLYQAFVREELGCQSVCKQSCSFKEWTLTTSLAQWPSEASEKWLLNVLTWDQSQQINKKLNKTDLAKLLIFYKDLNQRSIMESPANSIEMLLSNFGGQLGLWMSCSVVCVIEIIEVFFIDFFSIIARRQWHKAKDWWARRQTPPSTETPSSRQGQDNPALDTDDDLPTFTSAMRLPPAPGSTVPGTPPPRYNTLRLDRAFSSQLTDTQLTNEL

B1: SPLUNC2: human SPLUNC2 (SEQ ID NO:2), short PLUNC family protein co-expressed in oocytes (protein, listed as Homo sapiens)
chain: MLQLWKLVLLCGVLTGTSESLLDNLGNDLSNVVDKLEPVLHEGLETVDNTLKGILEKLKVDLGVLQKSSAWQLAKQKAQEAEKLLNNVISKLLPTNTDIFGLKISNSLILDVKAEPIDDGKGLNLSFPVTANVTVAGPIIGQIINLKASLDLLTAVTIETDPQTHQPVAVLGECASDPTSISLSLLDKHSQIINKFVNSVINTLKSTVSSLLQKEICPLIRIFIHSLDVNVIQQVVDNPQHKTQLQTLI
B2: LPLUNC1: long PLUNC family member co-expressed in Xenopus oocytes (protein)
chain: TLSPTAVLILGPKVIKEKLTQELKDHNATSILQQLPLLSAMREKPAGGIPVLGSLVNTVLKHIIWLKVITANILQLQVKPSANDQELLVKIPLDMVAGFNTPLVKTIVEFHMTTEAQATIRMDTSASGPTRLVLSDCATSHGSLRIQLLHKLSFLVNALAKQVMNLLVPSLPNLVKNQLCPVIEASFNGMYADLLQLVKVPISLSIDRLEFDLLYPAIKGDTIQLYLGAKLLDSQGKVTKWFNNSAASLTMPTLDNIPFSLIVSQDVVKAAVAAVLSPEEFMVLLDSVLPESAHRLKSSIGLINEKAADKLGSTQIVKILTQDTPEFFIDQGHAKVAQLIVLEVFPSSEALRPLFTLGIEASSEAQFYTKGDQLILNLNNISSDRIQLMNSGIGWFQPDVLKNIITEIIHSILLPNQNGKLRSGVPVSLVKALGFEAAESSLTKDALVLTPASLWKPSSPVSQ

Columns and labels:
[1] = tested on: CF HBECs; conditions: Ringer with 50 mM NaCl exchanged for 100 mM POPSO; 3 h
[2] = tested on: NL HBECs; test: ASL height by confocal microscopy in normal lung (NL) HBECs; format: cell-based, human; conditions: Ringer with 50 mM NaCl exchanged for 100 mM POPSO; 3 h
Method: To label airway surface liquid, Ringer containing Texas Red-dextran (2 mg/ml; Invitrogen) was added to human bronchial epithelial culture mucosal surfaces. Perfluorocarbon was added mucosally to prevent evaporation of the airway surface liquid and the culture placed in a chamber containing 100 μl Ringer on the stage of a Leica SP5 confocal microscope with a 63× glycerol immersion objective. 5 points per culture were scanned and an average airway surface liquid height determined. For confocal microscopy human bronchial epithelial cultures were bathed serosally in a modified Ringer solution containing (mM): 116 NaCl, 10 NaHCO3, 5.1 KCl, 1.2 CaCl2, 1.2 MgCl2, 20 TES, 10 glucose, pH 7.4). At all other times, human bronchial epithelial cultures were maintained in a modified BEGM growth medium which contained 24 mM NaHCO3 gassed with 5% CO2.
To label the ASL, PBS containing 10 kDa Rhodamine dextran (0.2-2 mg/mL; Invitrogen, Carlsbad, Calif., USA) was added to HBEC mucosal surfaces as previously described (Tarran et al., Mol. Cell 8:149 (2001)). When added, peptides with or without 100 nM neutrophil elastase, 1 U/mL aprotinin, activated neutrophil supernatant (ANS) (Haynes et al., Am. J. Physiol. Heart Circ. Physiol. 294:H379 (2008)) or 10 μM sivelestat (Sigma-Aldrich, St Louis, Mo., USA) were added to the mucosal surface along with the Rhodamine dextran. Bumetanide (100 μM) was added to the serosal solution.

[3] = biological target: T1, αβγENaC; test: Amiloride-sensitive whole cell current, two electrode voltage clamp, Xenopus laevis oocytes expressing αβγENaC; format: cell-based; conditions: PLUNC family member co-expressed with α,β,γ ENaC
Method: Xenopus laevis oocytes were harvested and injected as described (Donaldson, et al., J. Biol. Chem. 277:8338 (2002)). Defolliculated healthy stage V-VI oocytes were injected with 0.3 ng of CRNA of each ENaC subunit. Injected oocytes were kept in modified Barth's saline (in mM: 88 NaCl, 1 KCl, 2.4 NaHCO3, 0.3 Ca(NO3)2, 0.41 CaCl2, 0.82 MgSO4, and 15 HEPES, adjusted to pH 7.35 with Tris). Oocytes were studied 24 hr after injection using the two electrode voltage clamp technique as previously described (Donaldson, et al., J. Biol. Chem. 277:8338 (2002)). Oocytes were clamped at a holding potential of −60 mV. The change in amiloride-sensitive whole cell current as an indicator of ENaC activity was determined by subtracting the corresponding current value measured in the presence of 10 μM amiloride from that measured before the application of amiloride. Where appropriate, oocytes were incubated with G22-A39 or ABC for 1 h prior to recording. In some experiments β-ENaC^S518C was used which forms ENaCs that are locked into an open probability near 1.0 by exposure to the sulthydral reactive reagent [2-(Trimethyl-ammonium)ethyl]methanethiosulphonate bromide (MTSET). MTSET was added at a concentration of 1 mM to the oocyte bath as previously described (Snyder, J. Clin. Invest. 105: 45 (2000)).

Molecule | CF ASL height [1] | NL ASL height [2] | amiloride-sensitive ENaC current relative to control, co-expression [3]
O=S(=O)(O)CC(O)CN1CCN(CC(O)CS(=O)(=O)O)CC1 (stereo not shown) [POPSO, reference compound] | significantly elevated | no effect | –
B1 | – | – | borderline significance
B2 | – | – | no significant ENaC current reduction

Reference: US9127040B2, “Regulation of sodium channels by PLUNC proteins” (The University of North Carolina at Chapel Hill, priority 2011, dated 2015)
